Laboratory results from patent publication US20230295096A1, “PYRAZOLE CARBOXAMIDE COMPOUNDS FOR TREATMENT OF HBV” (ASSEMBLY BIOSCIENCES, INC., priority 2020, published 2023).
Like-named read-outs stand apart in the source and are kept apart here.

System: HBV
Test: Viral load production from HepAD38 cells, qPCR of the HBV core sequence in supernatant
Format: cell-based
Settings: Hepatitis B virus, HePAD38, 120 h, HepAD38 cells, 5 days, HBV DNA in supernatant by qPCR
In short: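 EC50 and CC50 come from four-parameter logistic fits of supernatant HBV core DNA (TaqMan qPCR, DNA standards, compared with DMSO wells) and of CellTiter-Glo luminescence.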

[1] = Table 1 ranges, read-out: Activity (viral load lowering EC50)
[2] = Table 2 ranges, read-out: VL HepAD38 EC50 range

Structure (SMILES)	EC50 [1] [nM]	EC50 [2] [nM]
Cn1nc(C2CC3CN(C(=O)OC4COC4)CC3C2)c(C(=O)Nc2ccc(F)c(Cl)c2)c1N (stereo not shown) [Example 119, Oxetan-3-yl 5-(5-amino-4-((3-chloro-4-fluorophenyl)carbamoyl)-1-methyl-1H-pyrazol-3-yl)hexahydrocyclopenta[c]pyrrole-2(1H)-carboxylate]	10 to 50	
Cn1nc(C2CC3CN(C(=O)c4cnc(C(F)(F)F)s4)CC3C2)c(C(=O)Nc2ccc(F)c(Cl)c2)c1N (stereo not shown) [Example 120, 5-Amino-N-(3-chloro-4-fluorophenyl)-1-methyl-3-(2-(2-(trifluoromethyl)thiazole-5-carbonyl)octahydrocyclopenta[c]pyrrol-5-yl)-1H-pyrazole-4-carboxamide]	50 to 500	
Cn1nc(C2CC3CN(C(=O)c4cccc(F)c4)CC3C2)c(C(=O)Nc2ccc(F)c(Cl)c2)c1N (stereo not shown) [Example 121, 5-Amino-N-(3-chloro-4-fluorophenyl)-3-(2-(3-fluorobenzoyl)octahydrocyclopenta[c]pyrrol-5-yl)-1-methyl-1H-pyrazole-4-carboxamide]	10 to 50	
Cn1nc(C2CC3CN(C(=O)Nc4cccc(F)c4)CC3C2)c(C(=O)Nc2ccc(F)c(Cl)c2)c1N (stereo not shown) [Example 122, 5-(5-Amino-4-((3-chloro-4-fluorophenyl)carbamoyl)-1-methyl-1H-pyrazol-3-yl)-N-(3-fluorophenyl)hexahydrocyclopenta[c]pyrrole-2(1H)-carboxamide]	10 to 50	
Cn1nc(C2CC3CN(C(=O)NC4CC(F)(F)C4)CC3C2)c(C(=O)Nc2ccc(F)c(Cl)c2)c1N (stereo not shown) [Example 123, 5-(5-Amino-4-((3-chloro-4-fluorophenyl)carbamoyl)-1-methyl-1H-pyrazol-3-yl)-N-(3,3-difluorocyclobutyl)hexahydrocyclopenta[c]-pyrrole-2(1H)-carboxamide]	50 to 500	
Cn1nc(C2CC3CN(c4c(F)cncc4F)CC3C2)c(C(=O)Nc2ccc(F)c(Cl)c2)c1N (stereo not shown) [Example 124, 5-Amino-N-(3-chloro-4-fluorophenyl)-3-(2-(3,5-difluoropyridin-4-yl)octahydrocyclopenta[c]pyrrol-5-yl)-1-methyl-1H-pyrazole-4-carboxamide]	10 to 50	
Cn1nc(C2CC3CN(c4ncc(F)cn4)CC3C2)c(C(=O)Nc2ccc(F)c(Cl)c2)c1N (stereo not shown) [Example 125, 5-Amino-N-(3-chloro-4-fluorophenyl)-3-(2-(5-fluoropyrimidin-2-yl)octahydrocyclopenta[c]pyrrol-5-yl)-1-methyl-1H-pyrazole-4-carboxamide]	10 to 50	
Cn1nc(C2CC3CN(C(=O)NCC4CC(F)(F)C4)CC3C2)c(C(=O)Nc2ccc(F)c(Cl)c2)c1N (stereo not shown) [Example 126, 5-(5-Amino-4-((3-chloro-4-fluorophenyl)carbamoyl)-1-methyl-1H-pyrazol-3-yl)-N-((3,3-difluorocyclobutyl)methyl)-hexahydrocyclopenta[c]pyrrole-2(1H)-carboxamide]	50 to 500	
Cn1nc(C2CC3CN(C(=O)Nc4ncc(C(F)(F)F)s4)CC3C2)c(C(=O)Nc2ccc(F)c(Cl)c2)c1N (stereo not shown) [Example 127, 5-(5-Amino-4-((3-chloro-4-fluorophenyl)carbamoyl)-1-methyl-1H-pyrazol-3-yl)-N-(5-(trifluoromethyl)thiazol-2-yl)hexahydrocyclopenta[c]pyrrole-2(1H)-carboxamide]	50 to 500	
Cn1nc(C2CC3CN(C(=O)OCc4cccc(F)c4)CC3C2)c(C(=O)Nc2ccc(F)c(Cl)c2)c1N (stereo not shown) [Example 130, 3-fluorobenzyl 5-(5-amino-4-((3-chloro-4-fluorophenyl)carbamoyl)-1-methyl-1H-pyrazol-3-yl)hexahydrocyclopenta[c]pyrrole-2(1H)-carboxylate]	10 to 50	
Cn1nc(C2CC3CN(C(=O)NCc4cccc(F)c4)CC3C2)c(C(=O)Nc2ccc(F)c(Cl)c2)c1N (stereo not shown) [Example 131, 5-(5-Amino-4-((3-chloro-4-fluorophenyl)carbamoyl)-1-methyl-1H-pyrazol-3-yl)-N-(3-fluorobenzyl)hexahydrocyclopenta[c]pyrrole-2(1H)-carboxamide]	10 to 50	
Cn1nc(C2CC3CN(c4ccc(C(F)(F)F)nn4)CC3C2)c(C(=O)Nc2ccc(F)c(Cl)c2)c1N (stereo not shown) [Example 132, 5-Amino-N-(3-chloro-4-fluorophenyl)-1-methyl-3-(2-(6-(trifluoromethyl)pyridazin-3-yl)octahydrocyclopenta[c]pyrrol-5-yl)-1H-pyrazole-4-carboxamide]	10 to 50	
Cn1nc(C2CC3CN(c4ncc(C(F)(F)F)cn4)CC3C2)c(C(=O)Nc2ccc(F)c(Cl)c2)c1N (stereo not shown) [Example 133, 5-Amino-N-(3-chloro-4-fluorophenyl)-1-methyl-3-(2-(5-(trifluoromethyl)pyrimidin-2-yl)octahydrocyclopenta[c]pyrrol-5-yl)-1H-pyrazole-4-carboxamide]	50 to 500	
Cn1nc(C2CC3CN(c4ncc(C(F)(F)F)s4)CC3C2)c(C(=O)Nc2ccc(F)c(Cl)c2)c1N (stereo not shown) [Example 134, 5-Amino-N-(3-chloro-4-fluorophenyl)-1-methyl-3-(2-(5-(trifluoromethyl)thiazol-2-yl)octahydrocyclopenta[c]pyrrol-5-yl)-1H-pyrazole-4-carboxamide]	50 to 500	
Cn1nc(C2CC3CN(c4cnc(C(F)(F)F)cn4)CC3C2)c(C(=O)Nc2ccc(F)c(Cl)c2)c1N (stereo not shown) [Example 135, 5-Amino-N-(3-chloro-4-fluorophenyl)-1-methyl-3-(2-(5-(trifluoromethyl)pyrazin-2-yl)octahydrocyclopenta[c]pyrrol-5-yl)-1H-pyrazole-4-carboxamide]	50 to 500	
Cn1nc(C2CC3CN(c4c(Cl)cncc4Cl)CC3C2)c(C(=O)Nc2ccc(F)c(Cl)c2)c1N (stereo not shown) [Example 136, 5-Amino-N-(3-chloro-4-fluorophenyl)-3-(2-(3,5-dichloropyridin-4-yl)octahydrocyclopenta[c]pyrrol-5-yl)-1-methyl-1H-pyrazole-4-carboxamide]	50 to 500	
Cn1nc(C2CC3CC3C2)c(C(=O)Nc2ccc(F)c(Cl)c2)c1N (stereo not shown) [Example 139, 5-Amino-3-(bicyclo[3.1.0]hexan-3-yl)-N-(3-chloro-4-fluorophenyl)-1-methyl-1H-pyrazole-4-carboxamide]		< 100

Structure (SMILES)	EC50 [1] [nM]	EC50 [2] [nM]
Cn1nc(C2CC3CC(=O)C(c4ccccc4)C3C2)c(C(=O)Nc2ccc(F)c(Cl)c2)c1N (stereo not shown) [Example 140, 5-Amino-N-(3-chloro-4-fluorophenyl)-1-methyl-3-(5-oxo-4-phenyloctahydropentalen-2-yl)-1H-pyrazole-4-carboxamide]		< 100
Cn1cc(C2(O)CC3CC(c4nn(C)c(N)c4C(=O)Nc4ccc(F)c(Cl)c4)CC3C2)cn1 (stereo not shown) [Example 146]	< 10	
Cn1nc(C2CC3CC(O)(c4ncc[nH]4)CC3C2)c(C(=O)Nc2ccc(F)c(Cl)c2)c1N (stereo not shown) [Example 147]	10 to 50	
Cn1nc(C2CC3CC(O)(c4ncc(C(F)(F)F)s4)CC3C2)c(C(=O)Nc2ccc(F)c(Cl)c2)c1N (stereo not shown) [Example 148]	10 to 50	
Cn1nc(C2CC3CC(O)(c4nc(C(F)(F)F)cs4)CC3C2)c(C(=O)Nc2ccc(F)c(Cl)c2)c1N (stereo not shown) [Example 149]	10 to 50	
Cn1cc(Br)c(C2(O)CC3CC(c4nn(C)c(N)c4C(=O)Nc4ccc(F)c(Cl)c4)CC3C2)n1 (stereo not shown) [Example 150]	< 10	
Cn1nc(C2CC3CC(O)(c4sc(C(F)(F)F)nc4Br)CC3C2)c(C(=O)Nc2ccc(F)c(Cl)c2)c1N (stereo not shown) [Example 151]	50 to 500	
Cn1nc(C2CC3CC(O)(c4nc5cc(F)c(F)cc5n4C)CC3C2)c(C(=O)Nc2ccc(F)c(Cl)c2)c1N (stereo not shown) [Example 152]	10 to 50	
Cn1ccc(C2(O)CC3CC(c4nn(C)c(N)c4C(=O)Nc4ccc(F)c(Cl)c4)CC3C2)n1 (stereo not shown) [Example 153]	< 10	
Cc1cc(C2(O)CC3CC(c4nn(C)c(N)c4C(=O)Nc4ccc(F)c(Cl)c4)CC3C2)c(F)cn1 (stereo not shown) [Example 154]	< 10	
Cn1nc(N)cc1C1(O)CC2CC(c3nn(C)c(N)c3C(=O)Nc3ccc(F)c(Cl)c3)CC2C1 [Example 155, 5-amino-3-((2 s,3aR,5r,6aS)-5-(3-amino-1-methyl-1H-pyrazol-5-yl)-5-hydroxyoctahydropentalen-2-yl)-N-(3-chloro-4-fluorophenyl)-1-methyl-1H-pyrazole-4-carboxamide]	< 10	
Cn1nc(C2CC3CC(O)(c4c[nH]nc4C(F)(F)F)CC3C2)c(C(=O)Nc2ccc(F)c(Cl)c2)c1N (stereo not shown) [Example 156, 5-amino-N-(3-chloro-4-fluorophenyl)-3-(5-hydroxy-5-(3-(trifluoromethyl)-1H-pyrazol-4-yl)octahydropentalen-2-yl)-1-methyl-1H-pyrazole-4-carboxamide]	< 10	
Cn1nc(C2CC3CC(O)(c4cn(COP(=O)(O)O)nc4C(F)(F)F)CC3C2)c(C(=O)Nc2ccc(F)c(Cl)c2)c1N (stereo not shown) [Example 157, sodium sodium (4-(5-(5-amino-4-((3-chloro-4-fluorophenyl)carbamoyl)-1-methyl-1H-pyrazol-3-yl)-2-hydroxyoctahydropentalen-2-yl)-3-(trifluoromethyl)-1H-pyrazol-1-yl)methyl phosphate]	< 10	
COCCOCCOCCOCCOCCOCCOCCOCCOC(=O)OCn1cc(C2(O)CC3CC(c4nn(C)c(N)c4C(=O)Nc4ccc(F)c(Cl)c4)CC3C2)c(C(F)(F)F)n1 [Example 158, (4-((2r,3aR,5 s,6aS)-5-(5-amino-4-((3-chloro-4-fluorophenyl)carbamoyl)-1-methyl-1H-pyrazol-3-yl)-2-hydroxyoctahydropentalen-2-yl)-3-(trifluoromethyl)-1H-pyrazol-1-yl)methyl (2,5,8,11,14,17,20,23-octaoxapentacosan-25-yl) carbonate]	< 10	
Cn1nc(C(F)(F)F)cc1C1(O)CC2CC(c3nn(C)c(N)c3C(=O)Nc3ccc(F)c(Cl)c3)CC2C1 (stereo not shown) [Example 159]	10 to 50	
Cn1nc(C2CC3CC(O)(Cc4nccs4)CC3C2)c(C(=O)Nc2ccc(F)c(Cl)c2)c1N (stereo not shown) [Example 160]	< 10	
Cc1ncc(C2(O)CC3CC(c4nn(C)c(N)c4C(=O)Nc4ccc(F)c(Cl)c4)CC3C2)s1 (stereo not shown) [Example 161]	< 10	
